Assay results from patent US4450269A, “Mono-5-substituted-3-chloro-4H-1,2,6-thiadiazin-4-one antifungal agents” (FMC Corporation, priority 1980, dated 1984).

How the values were obtained:
[1] = tested on: Pythium ultimum and Rhizoctonia solani; assay: Soil/seed treatment, cucumber damping-off complex; type: in vivo; details: 150 ppm suspension, 3.75 to 3.8 mg per pot
Protocol: Containers having a volume of about 0.25 l. were 2/3 filled with topsoil and 25 cucumber c.v. [Straight Eight` seeds deposited on the soil surface of each pot. A suspension containing 150 ppm of the test chemical was poured over the seeds and into the soil in sufficient quantity to provide 3.75 to 3.8 mg active ingredient per pot.
Fungi used in this test were Pythium ultimum and Rhizoctonia solani. These fungi were each grown on potato dextrose agar for three to six days. The agar plus mycelium was then minced in a blender with water and 10 ml of the resulting slurry of minced mycelium poured over the seeds.
Following inoculation approximately 15 mm of topsoil was spread over the seeds, the container capped and incubated at 4° C. in darkness for three days, then transferred to a greenhouse (27° C.) for 10-14 days, at which time stand counts were made. Captan was used as a standard for comparison. Based on stand counts on Efficacy Index was calculated for each test chemical as follows: [formula]

Sclerotinia fructicola = assay: Mycelial growth test; type: cell-based; details: SF; for Percent Fungus Growth Inhibition: 72 hours; for inhibition at 5 ppm / inhibition at 10 ppm / inhibition at 20 ppm / inhibition at 40 ppm: Sclerotinia, 72 h, read-out: Percent Fungus Growth Inhibition
From the text: | SF = Sclerotinia fructicola

Uromyces phaseoli [2] = details: in vivo
Cercospora beticola [3] = details: in vivo
Erysiphe polygoni = details: in vivo
Uromyces phaseoli [4] = details: in vivo; remark: listed apart in the source
Fusarium solani = assay: Soil treatment, bean root rot; type: in vivo; details: 150 ppm suspension, 3.8 mg active per pot; for pest or weed control at 150 ppm, 3.8 mg/pot: Fusarium solani, soil, 336 h, read-out: Percent Disease Control, seed/soil, bean root rot
Protocol: In a similar manner the soil around a bean seedling was drenched with a sufficient amount of 150 ppm suspension of test chemical to provide 3.8 mg active per pot. Twenty-four hours later the soil was inoculated with a suspension of minced mycelium of Fusarium solani. The inoculated plants were then placed in a greenhouse, evaluated after fourteen days, and percent control of root rot damage calculated. The results, reported in Table III, indicate only a few of the compounds tested are effective in treating Bean Root Rot but that these provide a high degree of control.

Cercospora beticola [5] = assay: whole plant or invertebrate; details: in Beta vulgaris, foliar, 24 h, read-out: Percent Disease Control, curative, sugar beet leaf spot

| Compound | Efficacy Index, seed/soil, cucumber damping-off complex [1] | Percent Fungus Growth Inhibition (Sclerotinia fructicola; 5 ppm) | Percent Fungus Growth Inhibition (Sclerotinia fructicola; 10 ppm) | Percent Fungus Growth Inhibition (Sclerotinia fructicola; 20 ppm) | Percent Fungus Growth Inhibition (Sclerotinia fructicola; 40 ppm) | Percent Disease Control, curative, bean rust (Uromyces phaseoli [2]) | Percent Disease Control, curative, sugar beet leaf spot (Cercospora beticola [3]) | Percent Disease Control, curative, bean powdery mildew (Erysiphe polygoni) | Percent Disease Control, foliar, bean rust (Uromyces phaseoli [4]) | Percent Disease Control, seed/soil, bean root rot (Fusarium solani) | inhibition at 5 ppm (Sclerotinia fructicola; 5 ppm) | inhibition at 10 ppm (Sclerotinia fructicola; 10 ppm) | inhibition at 20 ppm (Sclerotinia fructicola; 20 ppm) | inhibition at 40 ppm (Sclerotinia fructicola; 40 ppm) | pest or weed control at 150 ppm (Cercospora beticola [5]) | pest or weed control at 150 ppm, 3.8 mg/pot (Fusarium solani) |
| --- | --- | --- | --- | --- | --- | --- | --- | --- | --- | --- | --- | --- | --- | --- | --- | --- |
| 3-chloro-5-(bromophenoxy)-4H-1,2,6-thiadiazin-4-one [Compound 33] | 0 | 44% | 61% | 94% | 100% | 0% | 0% | 95% | 100% | 95% |  |  |  |  |  |  |
| O=c1c(Cl)nsnc1Oc1ccccc1 [Compound 2, 3-chloro-5-phenoxy-4H--1,2,6-thiadiazin-4-one] |  |  |  |  |  |  |  |  |  |  | 52% | 67% | 100% | 100% | 0% | 100% |
| Cc1cc(Oc2nsnc(Cl)c2=O)cc(C)c1Br [Compound 60, 3-[(4-bromo-3,5-dimethyl)-phenoxy]-5-chloro-4H--1,2,6-thiadiazin-4-one] |  |  |  |  |  |  |  |  |  |  | 56% | 71% | 65% | 71% | 0% | 0% |
| Cc1cc(C)cc(Oc2nsnc(Cl)c2=O)c1 [Compound 25, 3-chloro-5-(3,5-dimethylphenoxy)-4H--1,2,6-thiadiazin-4-one] |  |  |  |  |  |  |  |  |  |  | 82% | 100% | 100% | 100% | 50% | 0% |
| Nc1ccc(Oc2nsnc(Cl)c2=O)cc1 [Compound 26, 5-(4-aminophenoxy)-3-chloro-4H--1,2,6-thiadiazin-4-one] |  | 17% | 66% |  |  |  |  |  |  |  |  |  |  | 100% | 95% | 0% |
| O=c1c(Cl)nsnc1Oc1cccc2ccccc12 [Compound 32, 3-chloro-5(1-naphthoxy)-4H-1,2,6-thiadiazin-4-one] |  |  |  |  |  |  |  |  |  |  | 74% | 79% | 76% | 100% | 90% | 0% |
| O=C(Nc1ccccc1)Nc1ccc(Oc2nsnc(Cl)c2=O)cc1 [Compound 29, 3-chloro-5-[4-(3-phenylureido)-phenoxy]-4H--1,2,6-thiadiazin-4-one] |  |  |  |  |  |  |  |  |  |  | 28% | 31% | 0% | 7% | 95% | 0% |
| O=c1c(Cl)nsnc1Oc1ccccc1Br [Compound 34, 3-chloro-5-(2-bromophenoxy)-4H-1,2,6,-thiadiazin-4-one] |  |  |  |  |  |  |  |  |  |  | 33% | 72% | 100% | 100% | 0% | 0% |
| O=c1c(Cl)nsnc1Oc1ccc(Br)cc1 [Compound 15, 3-chloro-5-(4-bromophenoxy)-4H--1,2,6-thiadiazin-4-one] |  |  |  |  |  |  |  |  |  |  | 92% | 83% | 83% | 88% | 0% | 0% |
| O=c1c(Cl)nsnc1Oc1c(Cl)c(Cl)c(Cl)c(Cl)c1Cl [Compound 31, 3-chloro-5-(pentachlorophenoxy)-4H--1,2,6-thiadiazine-4-one] |  |  |  |  |  |  |  |  |  |  | 55% | 52% | 72% | 52% | 0% | 0% |
| Cc1ccc(Oc2nsnc(Cl)c2=O)c(C)c1 [Compound 23, 3-chloro-5-(2,4-dimethylphenoxy)-4H--1,2,6-thiadiazin-4-one] |  |  |  |  |  |  |  |  |  |  | 82% | 100% | 100% | 100% | 100% | 0% |
| Cc1ccc(Oc2nsnc(Cl)c2=O)c(Br)c1 [Compound 57, 3-[(2-bromo-4-methyl)-phenoxy]-5-chloro-4H--1,2,6-thiadiazin-4-one] |  |  |  |  |  |  |  |  |  |  | 68% | 82% | 100% | 100% | 90% | 0% |
| CC(=O)Nc1ccc(Oc2nsnc(Cl)c2=O)cc1 [Compound 8, 5-(4-acetylaminophenoxy)-3-chloro-4H--1,2,6-thiadiazin-4-one] |  |  |  |  |  |  |  |  |  |  | 0% | 0% | 51% | 60% | 0% | 0% |
| O=C(O)c1ccc(Oc2nsnc(Cl)c2=O)cc1 [Compound 50, 3-(4-carboxyphenoxy)-5-chloro-4H--1,2,6-thiadiazin-4-one] |  |  |  |  |  |  |  |  |  |  | 59% | 47% | 94% | 100% | 50% | 0% |
| CNC(=O)Nc1ccc(Oc2nsnc(Cl)c2=O)cc1 [Compound 28, 3-chloro-5-[4-(3-methylureido)-phenoxy]-4H--1,2,6-thiadiazin-4-one] |  |  |  |  |  |  |  |  |  |  | 17% | 28% | 0% | 62% | 0% | 95% |
| CC(=O)Nc1cccc(Oc2nsnc(Cl)c2=O)c1 [Compound 42, 3-[(3-N--acetylamino)-phenoxy]-5-chloro-4H--1,2,6-thiadiazin-4-one] |  |  |  |  |  |  |  |  |  |  | 24% | 35% | 56% | 100% | 0% | 90% |
| Cc1cc(Cl)c(Oc2nsnc(Cl)c2=O)cc1C [Compound 58, 3-chloro-5-[(2-chloro-4,5-dimethyl)phenoxy]-4H--1,2,6-thiadiazin-4-one] |  |  |  |  |  |  |  |  |  |  | 56% | 65% | 68% | 71% | 0% | 0% |
| O=c1c(Cl)nsnc1Oc1cccc(Cl)c1Cl [Compound 19, 3-chloro-5-(2,3-dichlorophenoxy)-4H--1,2,6-thiadiazin-4-one] |  |  |  |  |  |  |  |  |  |  | 64% | 76% | 100% | 100% | 0% | 0% |
| O=c1c(Cl)nsnc1Oc1ccc(Cl)cc1 [Compound 12, 3-chloro-5-(4-chlorophenoxy)-4H--1,2,6-thiadiazin-4-one] |  |  |  |  |  |  |  |  |  |  | 64% | 82% | 100% | 100% | 95% | 0% |
| O=C(O)Cc1ccccc1Oc1nsnc(Cl)c1=O [Compound 45, 3-(2-carboxymethylphenoxy)-5-chloro-4H--1,2,6-thiadiazin-4-one] |  |  |  |  |  |  |  |  |  |  | 9% | 3% | 38% | 59% | 90% | 90% |
| CCCCOc1ccc(Oc2nsnc(Cl)c2=O)cc1 [Compound 6, 3-chloro-5-(4-n-butoxyphenoxy)-4H--1,2,6-thiadiazin-4-one] |  |  |  |  |  |  |  |  |  |  | 0% | 67% | 0% | 67% | 0% | 0% |
| N#Cc1ccc(Oc2nsnc(Cl)c2=O)cc1 [Compound 10, 3-chloro-5-(4-cyanophenoxy)-4H--1,2,6-thiadiazin-4-one] |  |  |  |  |  |  |  |  |  |  |  | 33% | 100% | 100% | 95% | 0% |
| Cc1cc(Oc2nsnc(Cl)c2=O)ccc1Cl [Compound 54, 3-chloro-5-(4-chloro-3-methylphenoxy)-4H--1,2,6-thiadiazin-4-one] |  |  |  |  |  |  |  |  |  |  | 49% | 50% | 53% | 64% | 0% | 0% |
| O=c1c(Cl)nsnc1Oc1ccc(Cl)cc1Cl [Compound 17, 3-chloro-5-(2,4-dichlorophenoxy)-4H--1,2,6-thiadiazin-4-one] |  |  |  |  |  |  |  |  |  |  | 62% | 76% | 96% | 100% | 95% | 0% |
| O=c1c(Cl)nsnc1Oc1cc(Cl)cc(Cl)c1 [Compound 20, 3-chloro-5-(3,5-dichlorophenoxy)-4H--1,2,6-thiadiazin-4-one] |  |  |  |  |  |  |  |  |  |  | 60% | 73% | 84% | 87% | 95% | 75% |
